In patent US9096871B2, “Variant CBH I polypeptides with reduced product inhibition” (BP Corporation North America Inc., priority 2010, dated 2015):
In brackets after ≈: the same amount, converted by molar mass.

Tests used:
Format in all cases: biochemical
[1] = system: BD29555 CBH I variant R273K/Y274Q/D281K/Y410H/P411G/R422K (parent SEQ ID NO:1); assay: 4-MUL assay, cellobiose inhibition, BD29555 R273K/Y274Q/D281K/Y410H/P411G/R422K variant; conditions: 250 mg/L cellobiose, (activity with cellobiose)/(activity without cellobiose)*100
Method: (§1) 4-Methylumbelliferyl Lactoside (4-MUL) Assay: This assay measures the activity of CBH I on the fluorogenic substrate 4-MUL (also known as MUL). Assays were run in a costar 96-well black bottom plate, where reactions were initiated by the addition of 4-MUL to enzyme in buffer (2 mM 4-MUL in 200 mM MES pH 6). Enzymatic rates were monitored by fluorescent readouts over five minutes on a SPECTRAMAX™ plate reader (ex/em 365/450 nm). Data in the linear range was used to calculate initial rates (Vo).
(§2) Cellobiose Tolerance Assays (or Cellobiose Inhibition Assays): Tolerance to cellobiose (or inhibition caused by cellobiose) was tested in two ways in the CBH I assays. A direct-dose tolerance method can be applied to all of the CBH I assays (i.e., 4-MUL, PASC, and/or bagasse assays), and entails the exogenous addition of a known amount of cellobiose into assay mixtures. A different indirect method entails the addition of an excess amount of β-glucosidase (BG) to PASC and bagasse assays (typically, 1 mg β-glucosidase/g solids loaded). BG will enzymatically hydrolyze the cellobiose generated during these assays; therefore, CBH I activity in the presence of BG can be taken as a measure of activity in the absence of cellobiose. Furthermore, when activity in the presence and absence of BG are similar, this indicates tolerance to cellobiose. […]

[2] = biological target: T1, T. reesei CBH I, wild type, SEQ ID NO:2 (Trichoderma reesei, UniProt P62694, INS458P/R459P); assay: 4-MUL assay, cellobiose inhibition, wild type T. reesei CBH I; conditions: read-out: % Activity in 4-MUL Assay (+/−Cellobiose)
Method: as §1
(§3) Cellobiose Tolerance Assays (or Cellobiose Inhibition Assays): Tolerance to cellobiose (or inhibition caused by cellobiose) was tested in two ways in the CBH I assays. A direct-dose tolerance method can be applied to all of the CBH I assays (i.e., 4-MUL, PASC, and/or bagasse assays), and entails the exogenous addition of a known amount of cellobiose into assay mixtures. A different indirect method entails the addition of an excess amount of β-glucosidase (BG) to PASC and bagasse assays (typically, 1 mg β-glucosidase/g solids loaded). […]
(§4) Cellobiose product tolerant substitutions were introduced into T. reesei CBH I (SEQ ID NO:2). A panel of variants with single and double alanine and lysine substitutions at R268 and R411 were expressed and analyzed. […]

[3] = system: BD29555 CBH I variant R273Q (parent SEQ ID NO:1); assay: Library screening, 4-MUL assay in presence and absence of cellobiose, BD29555 R273Q; conditions: library screen, 250 g/L cellobiose (so in the source), gluconolactone present
Method: as §1
as §3, with “mixtures.” for “mixtures. A different indirect method entails the addition of an excess amount of β-glucosidase (BG) to PASC and bagasse assays (typically, 1 mg β-glucosidase/g solids loaded).”
(§5) The wild type CBH I polypeptide BD29555 was mutagenized to identify variants with improved product tolerance. […] This product-release-site library was designed based on residues directly interacting with the cellobiose product in an attempt to identify variants with weakened interactions with cellobiose from which the product would be released more readily than the wild type enzyme. […]

[4] = system: BD29555 CBH I variant R273K/R422K (R268K/R411K by T. reesei numbering; parent SEQ ID NO:1; full length SEQ ID NO:301, mature SEQ ID NO:302); assay: 4-MUL assay, cellobiose inhibition, BD29555 R273K/R422K variant
Method: as §1
Cellobiose Tolerance Assays (or Cellobiose Inhibition Assays): Tolerance to cellobiose (or inhibition caused by cellobiose) was tested in two ways in the CBH I assays. A direct-dose tolerance method can be applied to all of the CBH I assays (i.e., 4-MUL, PASC, and/or bagasse assays), and entails the exogenous addition of a known amount of cellobiose into assay mixtures. A different indirect method entails the addition of an excess amount of β-glucosidase (BG) to PASC and bagasse assays (typically, 1 mg β-glucosidase/g solids loaded). BG will enzymatically hydrolyze the cellobiose generated during these assays; therefore, CBH I activity in the presence of BG can be taken as a measure of activity in the absence of cellobiose. Furthermore, when activity in the presence and absence of BG are similar, this indicates tolerance to cellobiose.
as §5
(§6) Cellobiose dose response curves of the wild-type and R273K/R422K variant of BD29555 were obtained during the 4-MUL assay. Enzyme rates (Vo) were measured in the presence of different concentrations of cellobiose (200 mM MES pH 6, 25° C.). Rates were measured in quadruplicate.

[5] = biological target: T. reesei CBH I variant R268A/R411A (parent SEQ ID NO:2) (Trichoderma reesei, UniProt A0A024RXP8, R268A/R411A); assay: 4-MUL assay, cellobiose inhibition, T. reesei CBH I R268A/R411A; conditions: read-out: % Activity in 4-MUL Assay (+/−Cellobiose), 250 mg/L cellobiose, (activity with cellobiose)/(activity without cellobiose)*100
Method: as §1, §3, §4

[6] = biological target: T. reesei CBH I variant R268K/R411K (parent SEQ ID NO:2) (Trichoderma reesei, UniProt A0A024RXP8, R268K/R411K); assay: 4-MUL assay, cellobiose inhibition, T. reesei CBH I R268K/R411K; conditions: read-out: % Activity in 4-MUL Assay (+/−Cellobiose), 250 mg/L cellobiose, (activity with cellobiose)/(activity without cellobiose)*100
Method: as §1, §3, §4

[7] = system: BD29555 CBH I variant R273A (parent SEQ ID NO:1); assay: Library screening, 4-MUL assay in presence and absence of cellobiose, BD29555 R273A; conditions: library screen, 250 g/L cellobiose (so in the source), gluconolactone present
Method: as §1
as §3, with “mixtures.” for “mixtures. A different indirect method entails the addition of an excess amount of β-glucosidase (BG) to PASC and bagasse assays (typically, 1 mg β-glucosidase/g solids loaded).”
as §5

[8] = system: CBH I polypeptide BD29555, wild type, SEQ ID NO:1; assay: Phosphoric acid swollen cellulose (PASC) assay, cellobiose inhibition, wild type BD29555; conditions: PASC substrate, FIG. 3
Method: (§7) Phosphoric Acid Swollen Cellulose (PASC) Assay: This assay measures the activity of CBH I using PASC as the substrate. During the assay, the concentration of PASC is monitored by a fluorescent signal derived from calcofluor binding to PASC (ex/em 365/440 nm). The assay is initiated by mixing enzyme (15 μl) and reaction buffer (85 μl of 0.2% PASC, 200 mM MES, pH 6), and then incubating at 35° C. while shaking at 225 RPM. After 2 hours, one reaction volume of calcofluor stop solution (100 μg/ml in 500 mM glycine pH 10) is added and fluorescence read-outs obtained (ex/em 365/440 nm).
as §2, with “cellobiose.” for “cellobiose. Furthermore, when activity in the presence and absence of BG are similar, this indicates tolerance to cellobiose.”

[9] = system: BD29555 CBH I variant R273K/R422K (parent SEQ ID NO:1; full length SEQ ID NO:301, mature SEQ ID NO:302); assay: PASC assay, cellobiose inhibition, BD29555 R273K/R422K variant; conditions: 10 g/L cellobiose, PASC substrate, FIG. 3
Method: as §7
as §2, with “cellobiose.” for “cellobiose. Furthermore, when activity in the presence and absence of BG are similar, this indicates tolerance to cellobiose.”

[10] = biological target: T. reesei CBH I variant R268A/R411K (parent SEQ ID NO:2) (Trichoderma reesei, UniProt A0A024RXP8, R268A/R411K); assay: 4-MUL assay, cellobiose inhibition, T. reesei CBH I R268A/R411K; conditions: read-out: % Activity in 4-MUL Assay (+/−Cellobiose), 250 mg/L cellobiose, (activity with cellobiose)/(activity without cellobiose)*100
Method: as §1, §3, §4

[11] = biological target: T1, T. reesei CBH I, wild type, SEQ ID NO:2; assay: PASC assay, cellobiose inhibition, wild type T. reesei CBH I
Method: as §7
as §2, with “cellobiose.” for “cellobiose. Furthermore, when activity in the presence and absence of BG are similar, this indicates tolerance to cellobiose.”

[12] = biological target: T. reesei CBH I variant R268K/R411A (parent SEQ ID NO:2) (Trichoderma reesei, UniProt A0A024RXP8, R268K/R411A); assay: 4-MUL assay, cellobiose inhibition, T. reesei CBH I R268K/R411A; conditions: read-out: % Activity in 4-MUL Assay (+/−Cellobiose), 250 mg/L cellobiose, (activity with cellobiose)/(activity without cellobiose)*100
Method: as §1, §3, §4

[13] = system: CBH I polypeptide BD29555, wild type, SEQ ID NO:1; assay: 4-Methylumbelliferyl lactoside (4-MUL) assay, cellobiose inhibition, wild type BD29555
Method: as §1, §3, §6

T1 sequence (P62694 other isoform, or with tags, fused parts or gaps INS458P/R459P): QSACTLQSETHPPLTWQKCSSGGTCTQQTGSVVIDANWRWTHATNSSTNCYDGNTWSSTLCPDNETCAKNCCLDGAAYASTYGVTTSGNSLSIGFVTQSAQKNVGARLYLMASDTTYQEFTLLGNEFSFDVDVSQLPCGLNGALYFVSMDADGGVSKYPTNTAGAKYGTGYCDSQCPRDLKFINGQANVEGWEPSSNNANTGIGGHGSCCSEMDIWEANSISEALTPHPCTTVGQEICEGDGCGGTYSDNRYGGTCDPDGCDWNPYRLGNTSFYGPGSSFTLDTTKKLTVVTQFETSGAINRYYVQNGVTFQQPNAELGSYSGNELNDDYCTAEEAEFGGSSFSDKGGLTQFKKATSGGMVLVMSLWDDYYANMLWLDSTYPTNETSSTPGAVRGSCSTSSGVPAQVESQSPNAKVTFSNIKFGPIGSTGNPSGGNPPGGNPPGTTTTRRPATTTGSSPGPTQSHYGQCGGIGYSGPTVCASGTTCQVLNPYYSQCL
T. reesei CBH I variant R268A/R411K (parent SEQ ID NO:2), sequence (A0A024RXP8 18-514 R268A/R411K): as the sequence (P62694 other isoform, or with tags, fused parts or gaps INS458P/R459P) above, with R251A, R394K counted along it
T. reesei CBH I variant R268K/R411A (parent SEQ ID NO:2), sequence (A0A024RXP8 18-514 R268K/R411A): as the sequence (P62694 other isoform, or with tags, fused parts or gaps INS458P/R459P) above, with R251K, R394A counted along it
T. reesei CBH I variant R268A/R411A (parent SEQ ID NO:2), sequence (A0A024RXP8 18-514 R268A/R411A): as the sequence (P62694 other isoform, or with tags, fused parts or gaps INS458P/R459P) above, with R251A, R394A counted along it
T. reesei CBH I variant R268K/R411K (parent SEQ ID NO:2), sequence (A0A024RXP8 18-514 R268K/R411K): as the sequence (P62694 other isoform, or with tags, fused parts or gaps INS458P/R459P) above, with R251K, R394K counted along it

SMILES: OC[C@H]1O[C@@H](O[C@H]2[C@H](O)[C@@H](O)C(O)O[C@@H]2CO)[C@H](O)[C@@H](O)[C@@H]1O (stereo partly drawn) [cellobiose]
- % Activity in 4-MUL Assay (+/−Cellobiose) [1]: 78%
- activity at 250 µg/mL [2]: 23%
- product tolerance [3]: enhanced product tolerance
- % Activity in 4-MUL Assay (+/−Cellobiose) ([4]; 250 mg/L cellobiose, (activity with cellobiose)/(activity without cellobiose)*100, R273K/R422K): 95%
- tolerance to cellobiose (dose response) ([4]; 4-MUL substrate, 200 mM MES pH 6, 25° C., FIG. 1B): tolerant to cellobiose up to 250 mg/L
- product tolerance ([4]; library screen, 4-MUL assay, 250 g/L cellobiose (so in the source), gluconolactone present): enhanced product tolerance
- activity at 250 µg/mL [5]: > 90%
- activity at 250 µg/mL [6]: > 90%
- product tolerance [7]: enhanced product tolerance
- IC50 [8]: 2200 µg/mL (≈ 6.43 mM)
- cellobiose concentration at which inhibition starts [8]: around 1 g/L
- inhibition by cellobiose [9]: little inhibition
- activity at 250 µg/mL [10]: > 90%
- IC50 [11]: 8.76 mM
- cellobiose concentration at which inhibition starts ([11]; PASC substrate, FIG. 3): around 1 g/L
- activity at 250 µg/mL [12]: > 90%
- % Activity in 4-MUL Assay (+/−Cellobiose) ([13]; 250 mg/L cellobiose, (activity with cellobiose)/(activity without cellobiose)*100, wild type BD29555): 25%
- half maximal inhibitory concentration (IC50 value) ([13]; 4-MUL substrate, 200 mM MES pH 6, 25° C., rates in quadruplicate, FIG. 1A): 60 µg/mL
